Earlier results as cited in patent US10596120B2, “Pharmaceutical compositions” (Boehringer Ingelheim International GmbH, priority 2011, dated 2020).

Settings: metformin on its own, in the diabetic

CN(C)C(=N)N=C(N)N [metformin]
average improvement in the HbA1c value: 1.0-1.5%
